Data taken from PMC7687371, “Quantitative in Vitro to in Vivo Extrapolation (QIVIVE) for Predicting Reduced Anogenital Distance Produced by Anti-Androgenic Pesticides in a Rodent Model for Male Reproductive Disorders” (Environmental Health Perspectives, 2020).
Like-named read-outs stand apart in the source and are kept apart here. Marks after values point to notes of the source that are not given here.

Experiments:
NCI-H295R cells = assay: H295R steroidogenesis assay; type: cell-based, human; conditions: for Effect on androgen (steroid) synthesis, in words: H295R steroidogenesis assay; for IC20: read-out: Testosterone inhibition (IC20 µM); for IC50: 48 h, read-out: Testosterone inhibition (IC50, μM)
Method: To capture effects on steroid hormone synthesis (testosterone and androstendione), we tested all 12 pesticides in the H295R assay with the human adrenocortical carcinoma cell line NCI-H295R (American Type Culture Collection no. CRL-2,128, LGC Standards), as previously described ([Hecker et al. 2011]; [Rosenmai et al. 2013]). In brief, cells were cultured in DMEM/F-12 +glutamine medium with HEPES buffer (Invitrogen) containing 1% insulin-transferrin-sodium selenite plus Premix (VWR) and 2.5% Nu-Serum (BD Bioscience) at 37°C in a 5% CO2 atmosphere. The day before exposure, cells were seeded 300,000 per well in clear 24-well plates (VWR Corning). Cells were exposed for 48 h to control (Forskolin: 1μM , 10μM (Sigma-Aldrich); and Prochloraz: 0.3μM , 3μM (VWR-Bie and Berntsen) or test compounds. The vehicle (DMSO) concentration was kept constant in all wells (0.1%). After 48 h, the exposure culture medium was removed and stored at –80°C until the levels of 10 steroid hormones (testosterone, androstenedione, aldosterone, corticosterone, cortisol, dehydroepiandrosterone, 17α-hydroxyprogesterone , progesterone, estrone, and 17β-estradiol ) were quantified using the high-performance liquid chromatography–tandem mass spectrometry method described elsewhere ([Mortensen and Pedersen 2007]). Minor modifications were made to accommodate a smaller sample size and to include more hormones. The liquid chromatography system (Agilent 1100) was equipped with an Atlantis C18 column ( 2.1×150mm , 3μm ) (Waters Corp.) maintained at 40°C. The sample injection volume was 50μL . […] The mass spectrometer was a Quattro Ultima triple quadrupole instrument (Waters Corp.). […] Each pesticide was tested in 2-fold serial dilutions at concentrations between 0.8 and 50μM in three independent experiments, and hormone levels were normalized to the solvent controls containing 0.1% DMSO. Cell viability was evaluated by using the 3-(4,5-dimethylthiazol-2-yl)-2,5- diphenyltetrazolium bromide (MTT) assay (Sigma) as previously described ([Hecker et al. 2011]; [Rosenmai et al. 2013]). Fluorescence was measured (excitation 560 nm , emission 590 nm ) using a Wallac Victor2 1420 multilabel counter (PerkinElmer).

[1] = PBK model first-order kinetic parameters fitted to in vivo ADME data; parameters: species or system rat; conditions: for Metabolism rate in liver, Total (L/h) KMetab: metabolic clearance
pregnant dams and pups = conditions: cited from earlier work; for Critical toxicity / LOAEL (mg/kg bw) / NOAEL (mg/kg bw): ref EFSA's Draft Assessment Reports (DARs)
[2] = parameters: method as in U.S. EPA 2012; conditions: EPI Suite, experimental preferred over modeled; ref U.S. EPA 2012; cited from earlier work
[3] = cited from earlier work
Sprague-Dawley rats = assay: In vivo Study 2 (linuron), reproductive/developmental toxicity, AGD; conditions: for AGDI mean: Study 2, male pups; for AGDI reduction (%): male offspring, normalized AGDI scale
[4] = Fetal chemical exposure analysis (LC-QTOF) at GD21; type: in vivo, rat; conditions: male, Wistar, rat, in vivo, 60 mg/kg/day
Method: Dams were decapitated under CO2 /oxygen anesthesia at GD21 and fetuses collected by cesarean section. Prior to decapitation of the fetuses, their BWs and AGDs were recorded. Blood from the dams was collected in heparinized vacutainer tubes, centrifuged at 125×g for 10 min at 4°C to prepare plasma, and, together with the amniotic fluid, frozen directly. Pooled trunk blood from all female and male fetuses of the same litter (female and male blood separately) was collected into heparin-treated capillary tubes approximately 90 min after dosing and the plasma was prepared and stored at −80°C until analysis for pesticides and selected metabolites by liquid chromatography quadrupole time-of-flight mass spectroscopy (LC-QTOF). Details about the LC-QTOF analyses are provided in “Method S1” in Supplemental Material. Amniotic fluid was collected from fetuses by pipetting, pooled within each litter, snap frozen in liquid nitrogen, and subsequently stored at −80 °C .
Method S1. Chemical analysis of pesticide levels
Acetonitrile, methanol, formic acid and 25% ammonium hydroxide, all of LC-MS grade and ethyl acetate were obtained from Sigma Aldrich, Schneldorf, Germany. Isolute bulk C-18 sorbent was obtained from Biotage, Sweden and was washed with acetonitrile and ethyl acetate and dried prior to use. Water was purified on a Milli Q system, Millipore Corporation, US.
Pesticide standards were purchased from Dr. Ehrenstorfer (Augsburg, Germany), LGC-standards (Teddington, Middlesex, UK) and Sigma Aldrich (St. Louis, MO, USA). Acetonitrile used as solvents for the LC-QTOF was LiChrosolv Hypergrade. An ESI-L low concentration tuning mix from Agilent (Santa Clara, CA, USA) was used for tuning of the TOF. A reference solution was prepared containing Purine and HP0921 from Agilent (Santa Clara, CA, USA).
Stock solutions of the pesticides were prepared at 1 mg/ml in acetonitrile, methanol or toluene.
Standard mixtures containing the test compounds were prepared at a concentration of 10 µg/ml acetonitrile and used for preparation of calibration solutions. Isomers eluting very close to each other were avoided in these mixtures. […]
added 200 µl of ice-cold acetonitrile in Eppendorf tubes. Internal standard was added in the form of 10 µl TPP (5 µg/ml) and the extraction was performed by whirl mixing. The tube was then stored on ice for 5 min and then centrifuged at 10,000 x g for 10 min at 4 °C (Ole Dich Instrument, Denmark). An aliquot of the supernatant was transferred to filter vials (0.45 µm) and analysed by […]
Quality control samples were included in each analytical run. These were prepared using the same procedure as for the samples, though using amniotic fluid from untreated control Wistar rats extracted with acetonitrile containing three different levels of the relevant pesticide standards. The resulting spike levels were 0.04, 0.013 and 0.13 µg/ml. […]
fluid or plasma from Sprague Dawley rats was transferred to an Eppendorf vial and added 150 µl of acetonitrile. 50 mg of isolute C-18 sorbent was added to the tube, which was shaken for 5 min, […]
cooled to 4 °C and centrifuged at 10,000 x g for 10 min at 4 °C (Ole Dich Instrument makers, Denmark). 20 µl of the supernatant was transferred to an HPLC vial and mixed with 80 µl of 5%- 75% acetonitrile (this percentage was analyte dependent) prior to analysis by LC-MS.LC -QTOF […]
Pesticide screening was carried out using a liquid chromatography-electrospray ionization-quadrupole-time of flight-mass spectrometer.
The LC system was connected to a Bruker Daltonics, maXis qTOF mass spectrometer equipped with an electrospray ion source operated in positive ion mode (Bruker Daltonics, Bremen, Germany). The ion source settings were: nebulizer pressure 2 bars, drying gas flow 8 l/min, dry gas temperature 200 °C, capillary voltage 2500 V. The scan range was from 80 to 700 m/z with an acquisition rate of 2 Hz. Sodium formate dissolved in 50% 2-propanol was introduced in the ion […]

Wistar rats [5] = conditions: rat, in vivo
Wistar rats [6] = assay: In vivo Study 3 (fludioxonil, cyprodinil, dimethomorph), reproductive/developmental toxicity, AGD

| Structure (SMILES) | Effect on androgen (steroid) synthesis, in words (NCI-H295R cells) | IC20 (NCI-H295R cells; Homo sapiens, NCI-H295R) [µM] | Fecal excretion rate from gut (L/h) KFeces ([1]; PBK model parameter) [L/h] | Portal GI absorption rate into liver (L/h) KAS ([1]; PBK model parameter) [L/h] | Urine excretion rate from kidney (L/h) KUrine ([1]; PBK model parameter) [L/h] | Metabolism rate in liver, Total (L/h) KMetab ([1]; PBK model parameter) [L/h] | Critical toxicity (pregnant dams and pups) | LOAEL (mg/kg bw) (pregnant dams and pups) | NOAEL (mg/kg bw) (pregnant dams and pups) | log Kow [2] | IC50 (NCI-H295R cells; Homo sapiens, NCI-H295R) [µM] | Estradiol, LOEC (NCI-H295R cells; multiple contrast tests) [µM] | Testosterone, lowest observed effect concentration (LOEC) (NCI-H295R cells; multiple contrast tests) [µM] | Corticosterone, LOEC (NCI-H295R cells; multiple contrast tests) [µM] | Cortisol, LOEC (NCI-H295R cells; multiple contrast tests) [µM] | further results |
| --- | --- | --- | --- | --- | --- | --- | --- | --- | --- | --- | --- | --- | --- | --- | --- | --- |
| Cc1cc(C)nc(Nc2ccccc2)n1 [Pyrimethanil, pyrimethanil] | no effect on any measured androgen | > 50 | 0.1 | 1 | 0.01 | 0.8 | Reduced maternal and pup BW | 294 | 23 | 2.84 |  |  |  |  |  | Unbound plasma fraction (%) ([3]; plasma): 2.0^g % |
| CON(C)C(=O)Nc1ccc(Cl)c(Cl)c1 [Linuron, linuron, reference compound] | inhibited the synthesis of androgens |  | 0.08 | 0.5 | 0.05 | 1.0 |  |  |  | 3.20 | 27 |  |  |  |  | AGDI ED10 (Sprague-Dawley rats; Study 2, dose causing 10% AGDI reduction, regression): 27 mg/kg BW; AGDI mean (Sprague-Dawley rats; dose 25 mg/kg BW (control 1.00)): 0.91; AGDI mean (Sprague-Dawley rats; dose 50 mg/kg BW (control 1.00)): 0.72; Maternal toxicity (Sprague-Dawley rats; highest dose, 75 mg/kg per day): Maternal toxicity was observed; AGDI reduction (%) (Sprague-Dawley rats; dose 25 mg/kg BW per day): 9%; AGDI reduction (%) (Sprague-Dawley rats; dose 50 mg/kg BW per day): 28%; Unbound plasma fraction (%) ([3]; ref Wetmore et al. (2012)): 10.5^g % |
| Oc1ccccc1-c1ccccc1 [o -Phenylphenol, o -phenylphenol] | inhibited testosterone synthesis |  | 0.1 | 1 | 0.01 | 0.2 | Maternal BW gain, bladder & kidney effect | 140 | 40 | 3.09 |  | 25 | 50 |  |  | IC20 (NCI-H295R cells; NCI-H295R cells): 25 µM; Unbound plasma fraction (%) ([3]; ref Wetmore et al. (2012)): 4.1^g % |
| NC(=O)Nc1ccc(Cl)c(Cl)c1 [DPU, 1-(3,4-Dichlorophenyl)urea] |  |  |  |  | 0.05 |  |  |  |  | 2.00 | 5 |  |  |  |  | Metabolism rate in liver, Metabolite ([1]; conversion of parent compound into active metabolite): 0.25 L/h |
| Cc1cc(C2CC2)nc(Nc2ccccc2)n1 [Cyprodinil, cyprodinil] | inhibited testosterone synthesis | 0.4 | 1 | 1 | 0.2 | 0.01 | Reduced maternal and pup BW |  | 71 | 4.00 | 8.5 | 6.3 | 6.3 | 25 | 25 | Measured concentration in male fetuses [4]: 6.6 µM; Androstendione, LOEC (NCI-H295R cells; multiple contrast tests): 6.3 µM; Shortening of AGDI compared with male controls (normalized AGDI scale) (Wistar rats [5]; male, Wistar (HanTac:WH)): around 10%; AGDI mean (Wistar rats [5]; male, Wistar, 20 mg/kg): 2.13; AGDI mean (Wistar rats [5]; male, Wistar, 60 mg/kg): 1.98; AGDI reduction (%) (Wistar rats [5]; male, Wistar, 60 mg/kg/day): 16%; AGDI mean (Wistar rats [5]; male, Wistar, 180 mg/kg): 2.09; Nipple retention at PD14, statistics in words (Wistar rats [5]): no statistically significant effects on nipple retention; Biliary excretion rate (L/h) KBiliary ([1]; PBK model parameter): 1.6 L/h; % postnatal deaths (Wistar rats [6]; 20 mg/kg bw/day): 1.2 ± 3.7%; % postnatal deaths (Wistar rats [6]; 60 mg/kg bw/day): 0.0 ± 0.0%; % postnatal deaths (Wistar rats [6]; 180 mg/kg bw/day): 0.0 ± 0.0%; Maternal liver toxicity (pregnant dams and pups; 180 mg/kg per day, ref EFSA 2005): induce maternal liver toxicity |
| CC1(C)[C@H](C(=O)O[C@H](C#N)c2cccc(Oc3ccccc3)c2)[C@@H]1/C=C(\Cl)C(F)(F)F (racemic) [λ-Cyhalothrin, λ-cyhalothrin] | no effect on any measured androgen | > 50 | 4 | 1 | 0.05 | 0.3 | Reduced maternal and pup BW |  |  | 6.80 |  |  |  | 3.1 | 3.1 |  |
| CC1(C(=O)Nc2ccc(O)c(Cl)c2Cl)CCCCC1 [Fenhexamide, fenhexamid] | inhibited testosterone synthesis | 5.2 | 3 | 1 | 0.05 | 0.15 | Reduced maternal body and organ weight | 450 | 45 | 3.51 |  | 12.5 | 6.3 | 3.1 | 3.1 | Androstendione, LOEC (NCI-H295R cells; multiple contrast tests): 12.5 µM; DHEA, LOEC (NCI-H295R cells; multiple contrast tests): 12.5 µM; OH-Progesterone, LOEC (NCI-H295R cells; multiple contrast tests): 25 µM; Progesterone, LOEC (NCI-H295R cells; multiple contrast tests): 12.5 µM; Unbound plasma fraction (%) ([3]; plasma): 5.7^g % |
